Legend:
mAb 2C5 = assay: Isothermal titration calorimetry (ITC); assay type: binding, mouse
Experimental: (§1) Figure 7 IM and thermodynamic analysis of glycan–mAb interactions and conformation of 1. (a) IM analysis. The heat maps represent on- and off-rates of mAb 2C5 to 1 (upper) and 3 (lower). (b) Thermograms acquired using 7 μM of mAb 2C5 and titrating 250 μM of 1 (left) or 3 mM of 3 (right) at 25 °C. Thermodynamic parameters were inferred by nonlinear least-square fits of the data points. (c) Summary of thermodynamic parameters for 1 and 3 interacting with mAbs 2C5 and 10A1. Bars represent mean±s.e.m. of two independent measurements. See Supplementary Fig. 6 for details. (d) One-dimensional proton NMR spectrum, and 2D zTOCSY and NOE spectroscopy (NOESY) NMR spectra of 1 showing the coupled protons to the anomeric protons of the five residues with numbering according to the structure shown in e. Blue circles mark cross-peaks that appear in the NOESY spectrum, whereas not showing a corresponding peak in the zTOCSY. These peaks were marked as inter-residue NOEs and labelled by residue number and proton name. […]
(§2) Assuming that 1 had more interactions with the binding pockets, association with 1 would liberate more water molecules during complex formation than 3, thereby producing a more favourable entropy. To investigate this, thermodynamic parameters of mAb interactions with 1 and 3 were measured by ITC (Fig. 7b). […]

mAb 10A1 = assay: Isothermal titration calorimetry (ITC); assay type: binding, mouse
Experimental: as §1, §2

C[C@@H]1O[C@@H](O[C@@H]2[C@@H](O)[C@H](O[C@H]3[C@H](O[C@@H]4O[C@@H](C)[C@H](O)[C@@H](O)[C@H]4O)[C@@H](O)[C@@H](O[C@H]4[C@@H](OCCCCCN)O[C@H](CO)[C@@H](O)[C@@H]4O)O[C@@H]3CO)O[C@H](CO)[C@H]2O)[C@H](O)[C@H](O)[C@H]1O [Compound 1] showed a binding stoichiometry (mAb 2C5) of 2.2 and a binding stoichiometry (mAb 10A1) of 2.6.

Reference: article PMC4838876, “Multivalent display of minimal Clostridium difficile glycan epitopes mimics antigenic properties of larger glycans” (Nature Communications, 2016)
